Measurements published in PubChem BioAssay AID1919015 (Molecular Pharmacology Branch, DTP, NCI, 2023).

Test system: OVCAR-5 complex spheroids with HUVEC/MSC, viability, % test/control
Assay: Anticancer human tumor OVCAR-5 cell line growth inhibition [AhR];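 also: spheroids exposed to compounds for 7 days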;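 as to viability, T/C: 100% = DMSO vehicle control wells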
Conditions: for IC50: curve of first compound; for viability, T/C: stronger effect = lower value
How it was run: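 Spheroids combined tumor cells with HUVEC endothelial cells and human MSCs as stroma. AhR antagonists were paired with standard or investigational drugs, each dosed in half-log steps down from near clinical Cmax, or from 10 microM where Cmax was unknown.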

[1] = second compound 0.1 µM, first compound 0.0316 µM
[2] = second compound 0.1 µM, first compound 0.1 µM
[3] = second compound 0.1 µM, first compound 0.316 µM
[4] = second compound 0.1 µM, first compound 1 µM
[5] = second compound 0.316 µM, first compound 0.0316 µM
[6] = second compound 0.316 µM, first compound 0.1 µM
[7] = second compound 0.316 µM, first compound 0.316 µM
[8] = second compound 0.316 µM, first compound 1 µM
[9] = second compound 1 µM, first compound 0.0316 µM
[10] = second compound 1 µM, first compound 0.1 µM
[11] = second compound 1 µM, first compound 0.316 µM
[12] = second compound 1 µM, first compound 1 µM
[13] = second compound 3.16 µM, first compound 0.0316 µM
[14] = second compound 3.16 µM, first compound 0.1 µM
[15] = second compound 3.16 µM, first compound 0.316 µM
[16] = second compound 3.16 µM, first compound 1 µM
[17] = second compound 10 µM, first compound 0.0316 µM
[18] = second compound 10 µM, first compound 0.1 µM
[19] = second compound 10 µM, first compound 0.316 µM
[20] = second compound 10 µM, first compound 1 µM
[21] = second compound 0.1 µM, first compound 0.00949 µM
[22] = second compound 0.1 µM, first compound 0.03 µM
[23] = second compound 0.1 µM, first compound 0.0949 µM
[24] = second compound 0.1 µM, first compound 0.3 µM
[25] = second compound 0.1 µM, first compound 0.949 µM
[26] = second compound 0.1 µM, first compound 3 µM
[27] = second compound 0.316 µM, first compound 0.00949 µM
[28] = second compound 0.316 µM, first compound 0.03 µM
[29] = second compound 0.316 µM, first compound 0.0949 µM
[30] = second compound 0.316 µM, first compound 0.3 µM
[31] = second compound 0.316 µM, first compound 0.949 µM
[32] = second compound 0.316 µM, first compound 3 µM
[33] = second compound 1 µM, first compound 0.00949 µM
[34] = second compound 1 µM, first compound 0.03 µM
[35] = second compound 1 µM, first compound 0.0949 µM
[36] = second compound 1 µM, first compound 0.3 µM
[37] = second compound 1 µM, first compound 0.949 µM
[38] = second compound 1 µM, first compound 3 µM
[39] = second compound 3.16 µM, first compound 0.00949 µM
[40] = second compound 3.16 µM, first compound 0.03 µM
[41] = second compound 3.16 µM, first compound 0.0949 µM
[42] = second compound 3.16 µM, first compound 0.3 µM
[43] = second compound 3.16 µM, first compound 0.949 µM
[44] = second compound 3.16 µM, first compound 3 µM
[45] = second compound 10 µM, first compound 0.00949 µM
[46] = second compound 10 µM, first compound 0.03 µM
[47] = second compound 10 µM, first compound 0.0949 µM
[48] = second compound 10 µM, first compound 0.3 µM
[49] = second compound 10 µM, first compound 0.949 µM
[50] = second compound 10 µM, first compound 3 µM

CC1COCCN1c1cc(-c2ccnn2C)c2ccnc(-c3ccn[nH]3)c2n1 (stereo not given) + Cc1ccccc1N=Nc1ccc(NC(=O)c2ccnn2C)c(C)c1
IC50 (second compound 0.1 µM): 244 nM | IC50 (second compound 0.316 µM): 253 nM | IC50 (second compound 1 µM): 284 nM | IC50 (second compound 3.16 µM): 269 nM | IC50 (second compound 10 µM): 272 nM | viability, T/C (second compound 0.1 µM, first compound 0.00316 µM): 102% | viability, T/C (second compound 0.1 µM, first compound 0.01 µM): 101% | viability, T/C [1]: 98.5% | viability, T/C [2]: 79.9% | viability, T/C [3]: 41.4% | viability, T/C [4]: 26.3% | viability, T/C (second compound 0.316 µM, first compound 0.00316 µM): 104% | viability, T/C (second compound 0.316 µM, first compound 0.01 µM): 105% | viability, T/C [5]: 101% | viability, T/C [6]: 81.1% | viability, T/C [7]: 42.5% | viability, T/C [8]: 28.2% | viability, T/C (second compound 1 µM, first compound 0.00316 µM): 108% | viability, T/C (second compound 1 µM, first compound 0.01 µM): 110% | viability, T/C [9]: 101% | viability, T/C [10]: 87.5% | viability, T/C [11]: 45.5% | viability, T/C [12]: 30.1% | viability, T/C (second compound 3.16 µM, first compound 0.00316 µM): 109% | viability, T/C (second compound 3.16 µM, first compound 0.01 µM): 109% | viability, T/C [13]: 105% | viability, T/C [14]: 88.6% | viability, T/C [15]: 43.4% | viability, T/C [16]: 32.5% | viability, T/C (second compound 10 µM, first compound 0.00316 µM): 105% | viability, T/C (second compound 10 µM, first compound 0.01 µM): 106% | viability, T/C [17]: 101% | viability, T/C [18]: 82.2% | viability, T/C [19]: 45% | viability, T/C [20]: 33%

NS(=O)(=O)OCC1CC(n2ccc3c(NC4CCc5ccccc54)ncnc32)CC1O (stereo not given) + CC(CO)NC(=O)c1cc(-c2ccc(Cl)cc2)nn(-c2cnn(C)c2)c1=O
IC50 (second compound 0.1 µM): 196 nM | IC50 (second compound 0.316 µM): 159 nM | IC50 (second compound 1 µM): 169 nM | IC50 (second compound 3.16 µM): 174 nM | IC50 (second compound 10 µM): 204 nM | viability, T/C [1]: 92.9% | viability, T/C [2]: 66.1% | viability, T/C [3]: 40.3% | viability, T/C [4]: 16.1% | viability, T/C (second compound 0.1 µM, first compound 3.16 µM): 13% | viability, T/C (second compound 0.1 µM, first compound 10 µM): 11.3% | viability, T/C [5]: 79.5% | viability, T/C [6]: 58.9% | viability, T/C [7]: 37.1% | viability, T/C [8]: 14.8% | viability, T/C (second compound 0.316 µM, first compound 3.16 µM): 11.2% | viability, T/C (second compound 0.316 µM, first compound 10 µM): 11.5% | viability, T/C [9]: 85.1% | viability, T/C [10]: 61% | viability, T/C [11]: 37.6% | viability, T/C [12]: 14.9% | viability, T/C (second compound 1 µM, first compound 3.16 µM): 11.5% | viability, T/C (second compound 1 µM, first compound 10 µM): 11.6% | viability, T/C [13]: 72.1% | viability, T/C [14]: 65.3% | viability, T/C [15]: 33.5% | viability, T/C [16]: 13.7% | viability, T/C (second compound 3.16 µM, first compound 3.16 µM): 11.3% | viability, T/C (second compound 3.16 µM, first compound 10 µM): 11.2% | viability, T/C [17]: 75.7% | viability, T/C [18]: 65.7% | viability, T/C [19]: 40.7% | viability, T/C [20]: 15.7% | viability, T/C (second compound 10 µM, first compound 3.16 µM): 12.6% | viability, T/C (second compound 10 µM, first compound 10 µM): 12.6%

CCN(c1cc(-c2ccc(CN3CCOCC3)cc2)cc(C(=O)NCc2c(C)cc(C)[nH]c2=O)c1C)C1CCOCC1 + Cc1cncc(-c2nc(NCCc3c[nH]c4ccccc34)c3ncn(C(C)C)c3n2)c1
IC50 (second compound 0.1 µM): > 3000 nM | IC50 (second compound 0.316 µM): > 3000 nM | IC50 (second compound 1 µM): > 3000 nM | IC50 (second compound 3.16 µM): > 3000 nM | IC50 (second compound 10 µM): < 9.49 nM | viability, T/C [21]: 101% | viability, T/C [22]: 101% | viability, T/C [23]: 98.9% | viability, T/C [24]: 97.3% | viability, T/C [25]: 97.1% | viability, T/C [26]: 96.7% | viability, T/C [27]: 102% | viability, T/C [28]: 100% | viability, T/C [29]: 96.5% | viability, T/C [30]: 97.8% | viability, T/C [31]: 94.7% | viability, T/C [32]: 98.2% | viability, T/C [33]: 93.4% | viability, T/C [34]: 93.4% | viability, T/C [35]: 97% | viability, T/C [36]: 90.6% | viability, T/C [37]: 89.7% | viability, T/C [38]: 89.6% | viability, T/C [39]: 78.5% | viability, T/C [40]: 79% | viability, T/C [41]: 80.2% | viability, T/C [42]: 75.3% | viability, T/C [43]: 72.7% | viability, T/C [44]: 70.4% | viability, T/C [45]: 14.8% | viability, T/C [46]: 16% | viability, T/C [47]: 15.4% | viability, T/C [48]: 6.52% | viability, T/C [49]: 2.63% | viability, T/C [50]: 1.33%

O=C(C=Cn1cnc(-c2cc(C(F)(F)F)cc(C(F)(F)F)c2)n1)NNc1cnccn1 + Cc1cncc(-c2nc(NCCc3c[nH]c4ccccc34)c3ncn(C(C)C)c3n2)c1
IC50 (second compound 0.1 µM): 2760 nM | IC50 (second compound 0.316 µM): > 3000 nM | IC50 (second compound 1 µM): 2430 nM | IC50 (second compound 3.16 µM): 1450 nM | IC50 (second compound 10 µM): < 9.49 nM | viability, T/C [21]: 105% | viability, T/C [22]: 108% | viability, T/C [23]: 102% | viability, T/C [24]: 87.4% | viability, T/C [25]: 67.7% | viability, T/C [26]: 48.4% | viability, T/C [27]: 107% | viability, T/C [28]: 109% | viability, T/C [29]: 107% | viability, T/C [30]: 86.4% | viability, T/C [31]: 68.9% | viability, T/C [32]: 49.8% | viability, T/C [33]: 105% | viability, T/C [34]: 108% | viability, T/C [35]: 106% | viability, T/C [36]: 89.4% | viability, T/C [37]: 71% | viability, T/C [38]: 45.3% | viability, T/C [39]: 98.1% | viability, T/C [40]: 99.5% | viability, T/C [41]: 99.6% | viability, T/C [42]: 79.8% | viability, T/C [43]: 62% | viability, T/C [44]: 31.8% | viability, T/C [45]: 16.3% | viability, T/C [46]: 15% | viability, T/C [47]: 15.9% | viability, T/C [48]: 16.4% | viability, T/C [49]: 13.3% | viability, T/C [50]: 12.6%
